Experimental data reported in patent US8933070B2, “Methods of targeting PTEN mutant diseases and compositions therefor” (University Health Network, priority 2010, dated 2015).
Blank lines part the entries; values can stand above or below the compound they belong to.

Key:
PLK1 = biological target: T1, PLK1 (Homo sapiens, UniProt P53350); test: PLK1 inhibition assay (Z-Lyte); format: biochemical; conditions: dose of 10 μM; read-out: PLK1 relative inhibition percentage
T1 construct: purchased Invitrogen PV3501
T1 sequence (P53350 whole entry): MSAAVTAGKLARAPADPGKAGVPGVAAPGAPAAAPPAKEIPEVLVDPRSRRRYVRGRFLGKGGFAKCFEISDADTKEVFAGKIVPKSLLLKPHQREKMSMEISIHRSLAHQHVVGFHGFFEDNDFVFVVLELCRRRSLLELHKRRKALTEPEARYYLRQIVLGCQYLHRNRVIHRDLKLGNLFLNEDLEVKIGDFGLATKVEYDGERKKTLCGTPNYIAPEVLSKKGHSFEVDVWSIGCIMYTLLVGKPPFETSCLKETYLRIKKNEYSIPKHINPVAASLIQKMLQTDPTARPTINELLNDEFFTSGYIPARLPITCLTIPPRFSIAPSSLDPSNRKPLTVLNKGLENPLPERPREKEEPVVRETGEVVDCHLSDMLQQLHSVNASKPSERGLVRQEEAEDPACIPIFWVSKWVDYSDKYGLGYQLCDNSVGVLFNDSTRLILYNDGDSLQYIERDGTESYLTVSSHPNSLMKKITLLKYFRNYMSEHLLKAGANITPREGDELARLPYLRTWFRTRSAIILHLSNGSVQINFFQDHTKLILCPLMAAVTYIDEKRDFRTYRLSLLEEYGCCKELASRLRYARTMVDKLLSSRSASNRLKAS

PLK2 = biological target: T2, PLK2 (Homo sapiens, UniProt Q9NYY3); test: PLK2 inhibition assay (Z-Lyte); format: biochemical; conditions: for inhibition at 10 µM: dose of 10 μM, read-out: PLK2 relative inhibition percentage
T2 construct: purchased Invitrogen PV4204
T2 sequence (Q9NYY3 whole entry): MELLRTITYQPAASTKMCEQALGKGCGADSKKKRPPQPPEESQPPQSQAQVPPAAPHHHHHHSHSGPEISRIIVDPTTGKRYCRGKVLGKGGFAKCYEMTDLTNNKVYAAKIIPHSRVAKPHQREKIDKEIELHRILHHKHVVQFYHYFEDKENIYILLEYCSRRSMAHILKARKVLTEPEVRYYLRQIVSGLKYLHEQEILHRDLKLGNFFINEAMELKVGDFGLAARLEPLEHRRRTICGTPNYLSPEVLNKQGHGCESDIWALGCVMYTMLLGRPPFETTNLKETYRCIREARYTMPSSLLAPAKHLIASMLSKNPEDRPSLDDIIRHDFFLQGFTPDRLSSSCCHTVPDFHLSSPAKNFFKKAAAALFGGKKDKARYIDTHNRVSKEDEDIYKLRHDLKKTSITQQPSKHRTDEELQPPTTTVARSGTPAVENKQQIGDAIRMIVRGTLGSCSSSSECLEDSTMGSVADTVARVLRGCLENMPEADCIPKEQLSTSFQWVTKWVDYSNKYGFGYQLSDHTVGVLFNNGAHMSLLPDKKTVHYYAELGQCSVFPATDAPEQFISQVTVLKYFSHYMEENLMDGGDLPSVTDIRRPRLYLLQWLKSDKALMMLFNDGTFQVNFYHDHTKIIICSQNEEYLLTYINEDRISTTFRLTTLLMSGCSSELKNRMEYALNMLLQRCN
Method: (§1) PLK2 inhibition was determined using the Z-Lyte assay kit from Invitrogen (cat# PV3802). The assay was performed using the recommended manufacturer's instructions with 60 μM ATP and 133 nM PLK2 (Invitrogen cat #PV4204). The % inhibition values were determined according to the manufacturer's directions and IC50 values were obtained using a non-linear 4 point logistic curve fit (XLfit4, IDBS)

Aurora A = biological target: T3, Aurora A (Homo sapiens, UniProt O14965); test: Aurora A inhibition assay (Z-Lyte); format: biochemical; conditions: for inhibition at 10 µM: dose of 10 μM, read-out: Aurora A relative inhibition percentage
T3 construct: purchased Invitrogen PV3612
T3 sequence (O14965 1-403): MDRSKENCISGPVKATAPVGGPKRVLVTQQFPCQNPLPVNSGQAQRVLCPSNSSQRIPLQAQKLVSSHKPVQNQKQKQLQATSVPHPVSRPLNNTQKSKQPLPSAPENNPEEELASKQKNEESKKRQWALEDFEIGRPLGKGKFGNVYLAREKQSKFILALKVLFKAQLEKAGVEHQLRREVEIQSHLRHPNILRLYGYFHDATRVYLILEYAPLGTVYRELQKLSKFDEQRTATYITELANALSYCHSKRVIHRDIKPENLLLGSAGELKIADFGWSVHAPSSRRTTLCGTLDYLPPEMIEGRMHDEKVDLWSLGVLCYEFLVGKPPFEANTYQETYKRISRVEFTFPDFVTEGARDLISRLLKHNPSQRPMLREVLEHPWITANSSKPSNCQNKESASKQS
Method: as §1, with “Aurora A” for “PLK2”, “Invitrogen.” for “Invitrogen (cat# PV3802).”, “20 nM” for “60 μM”, “12” for “133”, “#PV3612).” for “#PV4204).”

AMPKalpha = test: Kinase selectivity assay (CEREP, HTRF); format: biochemical, human
Method: The inhibitory activity of selected compounds was evaluated against a panel of 45 different kinase enzymes by CEREP, France. The assays were performed using standard HTRF assay methods as documented by CEREP against the human orthologues of Abl kinase, Akt1/PKBa, AMPKa, BMX kinase (Etk), Brk, CaMK2a, CaMK4, CDC2/CDK1 (cycB), CHK1, CHK2, c-Met kinase, CSK, EphB4 kinase, ERK1, ERK2 (P42mapk), FGFR2 kinase, FGFR4 kinase, FLT-1 kinase (VEGFR1), FLT-3 kinase, Fyn kinase, IGF1R kinase, IRK (InsR), JNK 2, KDR kinase (VEGFR2), Lck kinase, Lyn kinase, MAPKAPK2, MEK1/MAP2K1, p38a kinase, p38d kinase, p38g kinase, PDGFRb kinase, PDK1, PKA, PKCa, PKCb1, PKCb2, PKCg, Ret kinase, ROCK2, RSK2, Src kinase, Syk, and TRKA. The % Inhibition was determined by the formula; % Inhibition=100×(1−(experimental value−background value)/(high activity control−background value)).

Aurora B = biological target: T4, Aurora B (Homo sapiens, UniProt Q96GD4); test: Aurora B inhibition assay (Z-Lyte); format: biochemical; conditions: read-out: IC50 Ranges Aurura B
T4 construct: purchased Invitrogen PV3970
T4 sequence (Q96GD4 whole entry): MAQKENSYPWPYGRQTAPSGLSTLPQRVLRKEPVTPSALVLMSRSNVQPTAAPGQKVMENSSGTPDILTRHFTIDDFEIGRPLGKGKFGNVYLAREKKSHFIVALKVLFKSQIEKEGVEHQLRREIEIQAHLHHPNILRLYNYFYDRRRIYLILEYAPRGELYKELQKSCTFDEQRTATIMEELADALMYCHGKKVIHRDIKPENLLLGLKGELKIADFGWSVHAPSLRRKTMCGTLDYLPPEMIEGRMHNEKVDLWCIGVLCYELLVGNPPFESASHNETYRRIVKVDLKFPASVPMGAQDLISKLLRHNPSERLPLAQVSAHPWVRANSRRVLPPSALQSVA
Method: Aurora B inhibition was determined using the Z-Lyte assay kit from Invitrogen. […] The % inhibition values were determined according to the manufacturer's directions and IC50 values were obtained using a non-linear 4 point logistic curve fit (XLfit4, IDBS).

[1] = test system: MCF-7 luminal breast cancer cell line; test: Cell growth inhibition, Sulforhodamine B (SRB) assay; format: cell-based; conditions: Homo sapiens, MCF7, 120 h; 5 days, SRB; read-out: Cell Line GI50 Range MCF-7
Method: (§2) Aliquots (20 μl) from each concentration were overlaid to 80 μl of the pre-seeded cells in the 96-plates to make final concentrations of 10 nM to 50 μM. The cells were cultured for 5 days before the Sulforhodamine B (SRB) assay was performed to determine the compound's cell growth inhibition activity.
(§3) Sulforhodamine B (Sigma, Canada) is a water-soluble dye that binds to the basic amino acids of cellular proteins. Thus, colorimetric measurement of the bound dye provides an estimate of the total protein mass that is related to the cell number. The cells are fixed in situ by gently aspirating off the culture media and adding 50 μl ice cold 10% Trichloroacetic Acid (TCA) per well and incubated at 4° C. for 30-60 min. The plates are washed with water five times and allowed to air dry for 5 min. Addition of 50 μl 0.4% (w/v) SRB solution in 1% (v/v) acetic acid to each well and incubatation for […] at RT completes the staining reaction. Following staining, plates are washed four times with 1% acetic acid to remove unbound dye and then allowed to air dry for 5 min. […] Absorbance is read at 570 nm.
(§4) The percentage (%) of relative growth inhibition was calculated by comparing to DMSO-treated only cells (100%). GI50's were determined for compounds with cytotoxic activity. The GI50 was calculated using GraphPad PRISM software (GraphPad Software, Inc., USA).

[2] = test system: human mammary epithelial primary cells (HMEC); test: as above; format: cell-based; conditions: 120 h, 5 days, SRB, normal primary breast cells, read-out: Cell Line GI50 Range HMEC
Method: as §2, §3, §4

[3] = test system: A549 lung cancer cell line; test: as above; format: cell-based; conditions: Homo sapiens, A549, 120 h; 5 days, SRB; read-out: Cell Line GI50 Range A549
Method: as §2, §3, §4

[4] = test system: SW620 colon cancer cell line; test: as above; format: cell-based; conditions: Homo sapiens, SW-620, 120 h; 5 days, SRB; read-out: Cell Line GI50 Range SW620
Method: as §2, §3, §4

[5] = test system: MDA-MB-468 basal breast cancer cell line; test: as above; format: cell-based; conditions: Homo sapiens, MDA-MB-468, 120 h; 5 days, SRB; read-out: Cell Line GI50 Range MDA-MB-468
[6] = test system: HCC1954 basal breast cancer cell line; test: as above; format: cell-based; conditions: Homo sapiens, HCC1954, 120 h; 5 days, SRB; Table 5; read-out: Cell Line GI50 Range HCC1954
Method: as §2, §3, §4
The SRB assay described above was used to assay test compounds against the extended panel (Table 6).

human PLK4 = biological target: T5, human PLK4 (Homo sapiens, UniProt O00444); test: PLK4 inhibition assay (indirect ELISA); format: biochemical; conditions: read-out: IC50 Ranges PLK4
T5 construct: amino terminal GST fusion of residues 1-391 of human PLK4; made in house; host or cells: E. coli
T5 sequence (O00444 1-391): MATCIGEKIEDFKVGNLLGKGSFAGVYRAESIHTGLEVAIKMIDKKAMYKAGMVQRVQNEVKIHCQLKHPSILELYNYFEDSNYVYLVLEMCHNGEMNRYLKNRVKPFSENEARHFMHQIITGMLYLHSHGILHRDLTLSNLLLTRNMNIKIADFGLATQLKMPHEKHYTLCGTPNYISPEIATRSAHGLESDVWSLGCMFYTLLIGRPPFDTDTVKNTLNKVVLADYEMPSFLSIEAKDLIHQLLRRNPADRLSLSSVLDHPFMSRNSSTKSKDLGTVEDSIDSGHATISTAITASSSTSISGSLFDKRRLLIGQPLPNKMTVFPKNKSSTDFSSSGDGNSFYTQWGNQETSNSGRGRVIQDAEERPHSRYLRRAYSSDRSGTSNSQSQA
Method: The protein was purified from clarified cell extracts after induction at 15° C. overnight using glutathione sepharose, gel permeation chromatography, and ion exchange (Resource Q). The resulting protein was dephosphorylated with lambda phosphatase (NEB cat# P0753), and resolved from the phosphatase using gluthione sepharose. The dephosphorylated GST-PLK4 was stored in aliquots at −80° C. until use.
PLK4 activity was measured using an indirect ELISA detection system. […] The colourimetric reaction was allowed to continue for 5 minutes, followed by addition of stop solution (0.5 N sulphuric acid), and quantified by detection at 450 nm with either a monochromatic or filter based plate reader (Molecular Devices M5 or Beckman DTX880, respectively).
Compounds were pre-incubated in the presence of enzyme for 15 minutes prior to addition of ATP and the activity remaining quantified using the above described activity assay. […] The IC50 value was determined using a non-linear 4 point logistic curve fit (XLfit4, IDBS) with the formula; (A+(B/(1+((x/C)^D)))), where A=background value, B=range, C=inflection point, D=curve fit parameter.

FGFR1 = test: Millipore kinase assay (radiolabelled phosphopeptide filter binding), IC50 estimate; format: biochemical; conditions: estimated from inhibition at three compound concentrations; ATP at Km; read-out: IC50 value estimates against FGFR1
Method: For a number of compounds, IC50 values were estimated against kinases of interest based on Millipore protocols. Kinase assays at Millipore were performed using a radiolabelled phosphopeptide filter binding detection system, in duplicate, at each compound concentration. The ATP substrate concentration in the reactions was at the Km for each enzyme.
To allow for a more direct comparison of compound inhibition, an IC50 value was estimated from the inhibition determined at three compound concentrations. Several assumptions were made to allow this calculation using a 4 parameter non linear curve fit model, including full inhibition set at 100%, no inhibition set to 0%, and a curve fit parameter set at 1. The inflection point was reported as the estimated […].

inhibition at 10 µM (PLK1): < 50%
inhibition at 10 µM (PLK2): < 50%
Compound: CN(C)Cc1ccc(/C=C/c2n[nH]c3cc([C@@H]4C[C@@]45C(=O)Nc4ccccc45)ccc23)cc1 (racemic) [Compound 5]

Compound: C[C@@H]1CN(Cc2ccc(/C=C/c3n[nH]c4cc([C@@H]5C[C@@]56C(=O)Nc5ccccc56)ccc34)cc2)C[C@H](C)O1 [Compound 38]
inhibition at 10 µM (Aurora A): > 50%

% Inhibition at 10 μM Concentration (AMPKalpha): 15%
Compound: O=C1Nc2ccccc2/C1=C\c1ccc2[nH]nnc2c1 [Compound 24]

Compound: O=C1Nc2ccccc2/C1=C\c1ccc2cn[nH]c2c1 [Compound 26]
% Inhibition at 10 μM Concentration (AMPKalpha): 54%

inhibition at 10 µM (Aurora A): > 50%
IC50 (Aurora B): < 5 µM
Compound: COc1ccc2c(c1)[C@]1(C[C@H]1c1ccc3c(/C=C/c4ccc(CN5CCOCC5)cc4)n[nH]c3c1)C(=O)N2C [Compound 36]

GI50 [1]: < 5 µM
GI50 [3]: < 5 µM
GI50 [4]: < 5 µM
GI50 [5]: < 5 µM
GI50 [6]: < 5 µM
inhibition at 10 µM (PLK2): < 50%
Compound: O=C1Nc2ccccc2[C@@]12C[C@@H]2c1ccc2c(/C=C/c3ccncc3)n[nH]c2c1 (racemic) [Compound 6]
GI50 [2]: 5 to 20 µM

IC50 (human PLK4): < 5 µM
Compound: COc1ccc2c(c1)C1(CC1c1ccc3c(I)n[nH]c3c1)C(=O)N2 (centres unmarked) [Compound 12]

IC50 (human PLK4): < 5 µM
IC50 (Aurora A; read-out: IC50 Ranges Aurora A): < 5 µM
IC50 (Aurora B): < 5 µM
Compound: COc1ccc2c(c1)/C(=C\c1ccc3c(-c4ccc(N(C)C)nc4)n[nH]c3c1)C(=O)N2 [Compound 11]

IC50 (FGFR1): < 5 µM
% Inhibition at 10 μM Concentration (AMPKalpha): 76%
Compound: COc1ccc2c(c1)C(=Cc1ccc3c(-c4ccc(N5CCN(C)CC5)nc4)n[nH]c3c1)C(=O)N2 [Compound 31]

IC50 (PLK2; read-out: IC50 Ranges PLK2): > 50 µM
Compound: O=C1Nc2ccccc2[C@@]12C[C@@H]2c1ccc2cn[nH]c2c1 (racemic) [Compound 40]

Compound: O=C1Nc2ccccc2/C1=C\c1ccc2c(/C=C/c3ccncc3)n[nH]c2c1 [Compound 28]
IC50 (FGFR1): < 5 µM

Compound: COc1ccc2c(c1)[C@]1(C[C@H]1c1ccc3c(/C=C/c4ccc(CN5C[C@@H](C)O[C@@H](C)C5)cc4)n[nH]c3c1)C(=O)N2 [Compound 37]
inhibition at 10 µM (Aurora A): > 50%

% Inhibition at 10 μM Concentration (AMPKalpha): 8%
Compound: O=C1Nc2ccccc2/C1=C\c1ccc2c(/C=C/c3ccccc3Cl)n[nH]c2c1 [Compound 29]

Compound: CN(C)Cc1ccc(/C=C/c2n[nH]c3cc(C=C4C(=O)Nc5ccccc54)ccc23)cc1 [Compound 39]
inhibition at 10 µM (PLK1): < 50%
inhibition at 10 µM (Aurora A): > 50%
IC50 (FGFR1): < 5 µM

IC50 (human PLK4): < 5 µM
IC50 (Aurora B): < 5 µM
Compound: Cc1ncsc1/C=C/c1n[nH]c2cc(/C=C3/C(=O)Nc4ccccc43)ccc12 [Compound 10]

IC50 (human PLK4): < 5 µM
Compound: COc1ccc2c(c1)/C(=C\c1ccc3c(/C=C/c4ccc(CN(C)C)cc4)n[nH]c3c1)C(=O)N2 [Compound 1]

IC50 (FGFR1): < 5 µM
% Inhibition at 10 μM Concentration (AMPKalpha): 81%
Compound: O=C1Nc2ccccc2C1=Cc1ccc2c(/C=C/c3ccccn3)n[nH]c2c1 [Compound 9]
